Laboratory results published in article PMC7031696 (Cell chemical biology, 2019).
Like-named read-outs stand apart in the source and are kept apart here.

Assays:
[1] = test system: asynchronous 3D7-A10 parasite cultures; test: Standard 72-h exposure asexual blood stage susceptibility assay (IC50^72h); assay type: cell-based, Plasmodium falciparum; conditions: Plasmodium falciparum, 3D7, 72 h, read-out: Overall (72hr assay) Mean IC50 (IC50^72h)
[2] = test system: Plasmodium falciparum 3D7-A10 parasites; test: Stage specificity assay (8-h exposure of synchronized stages, IC50^8h); assay type: cell-based; conditions: for IC50: Plasmodium falciparum
[3] = test system: 3D7-MR4 trophozoite parasite-infected RBCs; test: Metabolomic profiling (hydrophilic metabolite changes, UHPLC-MS); assay type: cell-based, Plasmodium falciparum

COc1cc(-c2nc(-c3ccccc3)c(-c3ccccc3)[nH]2)ccc1OCCN(C)C [MMV027496]
IC50 [1]: 89.7 nM | Ratio lowest IC50 8hr/IC50 72hr ([2]; 3D7-A10): 1.9 | IC50 ([2]; 3D7, read-out: Early rings Mean IC50 (IC50^8h), 8-h exposure 0–8 hr, 3D7-A10, survival at 60 h): 2760 nM | IC50 ([2]; 3D7, read-out: Early trophozoites Mean IC50 (IC50^8h), 8-h exposure 16–24 hr, 3D7-A10, survival at 60 h): 168 nM | IC50 ([2]; 3D7, read-out: Late rings Mean IC50 (IC50^8h), 8-h exposure 8–16 hr, 3D7-A10, survival at 60 h): 878 nM | IC50 ([2]; 3D7, read-out: Late trophozoites Mean IC50 (IC50^8h), 8-h exposure 24–32 hr, 3D7-A10, survival at 60 h): 199 nM | IC50 ([2]; 3D7, read-out: Schizonts Mean IC50 (IC50^8h), 8-h exposure 32–40 hr, 3D7-A10, survival at 60 h): 4340 nM | Stage of peak activity (Figure 6) ([2]; period when the parasite was most susceptible (lowest IC50^8h)): trophozoites | Peak Activity (Table S1) ([2]; stage(s) with the lowest IC50^8h): Trophs | Log2(fold changes) 3-phosphoglycerate ([3]; metabolite 3-phosphoglycerate, log2 fold change): 0.0073 | Log2(fold changes) 4-Pyridoxic acid ([3]; metabolite 4-Pyridoxic acid, log2 fold change): -0.0867 | Log2(fold changes) 4-aminobutyrate ([3]; metabolite 4-aminobutyrate, log2 fold change): -0.1160 | Log2(fold changes) 4-phosphopantetheine ([3]; metabolite 4-phosphopantetheine, log2 fold change): -1.1166 | Log2(fold changes) 4-phosphopantothenate ([3]; metabolite 4-phosphopantothenate, log2 fold change): -0.2287 | Log2(fold changes) 5-aminopentanoic acid ([3]; metabolite 5-aminopentanoic acid, log2 fold change): 0.0000 | Log2(fold changes) 5-methyl-THF ([3]; metabolite 5-methyl-THF, log2 fold change): 0.0000 | Log2(fold changes) 5-phosphoribosyl-1-pyrophosphate ([3]; metabolite 5-phosphoribosyl-1-pyrophosphate, log2 fold change): -0.7343 | Log2(fold changes) 6-phospho-D-gluconate ([3]; metabolite 6-phospho-D-gluconate, log2 fold change): -0.1141 | Log2(fold change) HVDD ([3]; metabolite HVDD): -2.1597 | Log2(fold change) Hydroxyisocaproic acid ([3]; metabolite Hydroxyisocaproic acid): 0.0000 | Log2(fold change) IDP ([3]; metabolite IDP): 0.0000 | Log2(fold change) IMP ([3]; metabolite IMP): 0.0628 | Log2(fold change) Inositol ([3]; metabolite Inositol): 0.0000 | Log2(fold change) Isopentyl-PP ([3]; metabolite Isopentyl-PP): 0.0000 | Log2(fold change) L-arginino-succinate ([3]; metabolite L-arginino-succinate): 0.8581 | Log2(fold change) LD ([3]; metabolite LD): -0.0397 | Log2(fold change) Myristoyl/tetradecanoyl-CoA ([3]; metabolite Myristoyl/tetradecanoyl-CoA): 0.0000 | Log2(fold change) N-Acetyl-L-alanine ([3]; metabolite N-Acetyl-L-alanine): 0.1987 | Log2(fold change) N-acetyl-L-ornithine ([3]; metabolite N-acetyl-L-ornithine): 0.0000 | Log2(fold change) N-acetyl-glucosamine-1/6-phosphate ([3]; metabolite N-acetyl-glucosamine-1/6-phosphate): -0.0707 | Log2(fold change) N-acetyl-glutamate ([3]; metabolite N-acetyl-glutamate): -0.1403 | Log2(fold change) N-acetyl-glutamine ([3]; metabolite N-acetyl-glutamine): -1.0773 | Log2(fold change) N-carbamoyl-L-aspartate ([3]; metabolite N-carbamoyl-L-aspartate): 0.5722 | Log2(fold change) NAD+ ([3]; metabolite NAD+): -0.1059 | Log2(fold change) NADH ([3]; metabolite NADH): 2.0630 | Log2(fold change) NADP+ ([3]; metabolite NADP+): -0.2030 | Log2(fold change) NADPH ([3]; metabolite NADPH): 1.8886 | Log2(fold change) O-acetyl-L-serine ([3]; metabolite O-acetyl-L-serine): 0.0000 | Log2(fold change) Octoluse 8/1P ([3]; metabolite Octoluse 8/1P): 0.3428 | Log2(fold change) Octoluse Bisphosphate ([3]; metabolite Octoluse Bisphosphate): 0.2244 | Log2(fold change) PD ([3]; metabolite PD): -1.0804 | Log2(fold change) PE ([3]; metabolite PE): -1.1988 | Log2(fold change) PEE ([3]; metabolite PEE): -0.8148 | Log2(fold change) PEEK ([3]; metabolite PEEK): 0.0064 | Log2(fold change) PVNF ([3]; metabolite PVNF): -2.2754 | Log2(fold change) Pyroglutamic acid ([3]; metabolite Pyroglutamic acid): 0.2204 | Log2(fold change) Pyrophosphate ([3]; metabolite Pyrophosphate): 0.0000 | Log2(fold change) Ribose-5-phosphate ([3]; metabolite Ribose-5-phosphate): -0.4834 | Log2(fold change) S-adenosyl-L-homocysteine ([3]; metabolite S-adenosyl-L-homocysteine): 0.0314 | Log2(fold change) S-adenosyl-L-methioninamine ([3]; metabolite S-adenosyl-L-methioninamine): 0.0000 | Log2(fold change) S-adenosyl-L-methionine ([3]; metabolite S-adenosyl-L-methionine): 0.0000 | Log2(fold change) S-methyl-5'-thioadenosine ([3]; metabolite S-methyl-5'-thioadenosine): -0.0546 | Log2(fold change) SD ([3]; metabolite SD): -0.8375 | Log2(fold change) SDL ([3]; metabolite SDL): -2.4484 | Log2(fold change) SID ([3]; metabolite SID): 0.0000 | Log2(fold change) Sedoheptulose bisphosphate ([3]; metabolite Sedoheptulose bisphosphate): 0.5967 | Log2(fold change) Thiamine pyrophosphate ([3]; metabolite Thiamine pyrophosphate): 0.1905 | Log2(fold changes) UDP-D-glucose ([3]; metabolite UDP-D-glucose, log2 fold change): 0.0680 | Log2(fold changes) UDP-D-glucuronate ([3]; metabolite UDP-D-glucuronate, log2 fold change): -0.0322 | Log2(fold changes) UDP-N-acetyl-glucosamine ([3]; metabolite UDP-N-acetyl-glucosamine, log2 fold change): -0.0747 | Log2(fold changes) UDP ([3]; metabolite UDP, log2 fold change): -0.5781 | Log2(fold changes) UMP ([3]; metabolite UMP, log2 fold change): 0.0423 | Log2(fold changes) UTP ([3]; metabolite UTP, log2 fold change): -0.1765 | Log2(fold change) hydroxyphenylpyruvate ([3]; metabolite hydroxyphenylpyruvate): 0.0000 | Log2(fold change) hydroxyproline/Aminolevulinate ([3]; metabolite hydroxyproline/Aminolevulinate): -0.0266 | Log2(fold change) hypoxanthine ([3]; metabolite hypoxanthine): 0.1428 | Log2(fold change) indole ([3]; metabolite indole): 0.0089 | Log2(fold change) inosine ([3]; metabolite inosine): -0.2181 | Log2(fold change) isoleucine ([3]; metabolite isoleucine): 0.0175 | Log2(fold change) lactate ([3]; metabolite lactate): -0.1982 | Log2(fold change) leucine ([3]; metabolite leucine): -0.1115 | Log2(fold change) lysine ([3]; metabolite lysine): 0.0000 | Log2(fold change) malate ([3]; metabolite malate): -0.3708 | Log2(fold change) maleic acid ([3]; metabolite maleic acid): -0.2294 | Log2(fold change) methionine ([3]; metabolite methionine): 0.2631 | Log2(fold change) myo-inositol ([3]; metabolite myo-inositol): 0.0000 | Log2(fold change) nicotinamide mononucleotide ([3]; metabolite nicotinamide mononucleotide): 0.0000 | Log2(fold change) nicotinate ([3]; metabolite nicotinate): 0.0117 | Log2(fold change) ornithine ([3]; metabolite ornithine): 0.0000 | Log2(fold change) orotate ([3]; metabolite orotate): 1.3653 | Log2(fold change) orotidine-5'-phosphate ([3]; metabolite orotidine-5'-phosphate): 0.1863 | Log2(fold change) oxaloacetate ([3]; metabolite oxaloacetate): 0.0000 | Log2(fold change) p-aminobenzoate ([3]; metabolite p-aminobenzoate): 0.0000 | Log2(fold change) p-hydroxybenzoate ([3]; metabolite p-hydroxybenzoate): 0.0000 | Log2(fold change) pantothenate ([3]; metabolite pantothenate): 0.0065 | Log2(fold change) phenylalanine ([3]; metabolite phenylalanine): -0.1381 | Log2(fold change) phenylpyruvate ([3]; metabolite phenylpyruvate): 0.0000 | Log2(fold change) phosphoenolpyruvate ([3]; metabolite phosphoenolpyruvate): -0.0480 | Log2(fold change) prephenate ([3]; metabolite prephenate): 0.0000 | Log2(fold change) proline ([3]; metabolite proline): -0.1946 | Log2(fold change) pyridoxine ([3]; metabolite pyridoxine): 0.0000 | Log2(fold change) pyruvate ([3]; metabolite pyruvate): -0.1903 | Log2(fold change) riboflavin ([3]; metabolite riboflavin): -0.1484 | Log2(fold change) ribose ([3]; metabolite ribose): 0.0000 | Log2(fold change) ribose-phosphate ([3]; metabolite ribose-phosphate): 0.0000 | Log2(fold change) ribulose-5-phosphate ([3]; metabolite ribulose-5-phosphate): -0.2217 | Log2(fold change) serine ([3]; metabolite serine): 0.1164 | Log2(fold change) sn-glycerol-3-phosphate ([3]; metabolite sn-glycerol-3-phosphate): 0.2423 | Log2(fold change) succinate/Methylmalonic acid ([3]; metabolite succinate/Methylmalonic acid): 0.0338 | Log2(fold change) succinyl-CoA/methylmalonyl-CoA ([3]; metabolite succinyl-CoA/methylmalonyl-CoA): 0.0865 | Log2(fold change) taurine ([3]; metabolite taurine): 0.0000 | Log2(fold change) thiamine ([3]; metabolite thiamine): 0.0000 | Log2(fold change) threonine/homoserine ([3]; metabolite threonine/homoserine): -0.2212 | Log2(fold change) thymidine ([3]; metabolite thymidine): 0.0000 | Log2(fold changes) thymine ([3]; metabolite thymine, log2 fold change): 0.0000 | Log2(fold changes) trehalose-6-Phosphate ([3]; metabolite trehalose-6-Phosphate, log2 fold change): 0.0000 | Log2(fold changes) tryptophan ([3]; metabolite tryptophan, log2 fold change): -0.0286 | Log2(fold changes) tyrosine ([3]; metabolite tyrosine, log2 fold change): 0.0383 | Log2(fold changes) uridine ([3]; metabolite uridine, log2 fold change): 0.0000
